Test results: patent US10421761B2, “Compounds for kinase modulation, and indications therefor” (Plexxikon Inc., priority 2013, dated 2019)

Tests used:
[1] = test system: A375 (BRAF V600E) cell line; experiment: A375 P-ERK inhibition assay (AlphaScreen); assay type: cell-based, human; settings: Homo sapiens, A-375; A375_P-ERK
Method: (§1) Phospho-ERK AlphaScreen® assay. To determine the effects of compound treatment upon phosphorylation of ERK1/2, cells were plated in a 96-well dish and treated with an 8-point titration of compound for one hour at 37° C. before lysis. To detect pERK, cell lysates were incubated with streptavidin-coated AlphaScreen® donor beads, anti-mouse IgG AlphaScreen® acceptor beads, a biotinylated anti-ERK1/2 rabbit antibody, and a mouse antibody that recognizes ERK1/2 only when it is phosphorylated on Thr202 and Tyr204. The biotinylated ERK1/2 antibody binds to both the streptavidin-coated AlphaScreen® donor beads and to ERK1/2 (regardless of its phosphorylation state), and the phospho-ERK1/2 antibody binds to the acceptor beads and to ERK1/2 that is phosphorylated at Thr202/Tyr204. An increase in ERK1/2 phosphorylation at Thr202/Tyr204 brings the donor and acceptor AlphaScreen® beads into close proximity, generating a signal that can be quantified on an EnVision reader (Perkin Elmer).

B9 (HRAS Q61L) cell line = experiment: B9 P-ERK cell activation assay (AlphaScreen); assay type: cell-based, mouse; settings: Mus musculus; P-ERK cell activation, B9; numeric bounds; read-out: Cell activity (EC50 μM) B9_pERK
Method: (§2) B9 is a squamous cell carcinoma cell line expressing activated HRAS that was isolated from a DMBA/TPA-induced mouse model of skin carcinogenesis (Stoler, et al. The Journal of Cell Biology, 1993, 122(5), 1103-17). IPC-298 is a human melanoma cell line that expresses activated NRAS (Aubert, et al. International Journal of Cancer, 1993, 54(5), 784-92). To determine whether compounds induce phosphorylated ERK and MEK, cells are plated in a 96-well dish and treated with an 8-point titration of compound for one hour at 37° C. The media is then removed and the cells are incubated with lysis buffer containing protease and phosphatase inhibitors. Phosphorylated ERK and MEK in the resulting lysates is detected using AlphaScreen™ technology. To detect phosphorylated ERK, cell lysates are incubated with streptavidin-coated donor beads, anti-mouse IgG acceptor beads, a biotinylated anti-ERK1/2 rabbit antibody, and a mouse antibody that recognizes ERK1/2 only when it is phosphorylated on Thr202 and Tyr204. The biotinylated ERK1/2 antibody will bind to both the streptavidin-coated donor beads and to ERK1/2 (regardless of its phosphorylation state), and the phospho-ERK1/2 antibody will bind to the acceptor beads and to ERK1/2 that is phosphorylated at Thr202/Tyr204. Excitation of the beads with laser light at 680 nm produces singlet oxygen, which is rapidly quenched unless the beads are in close proximity. When ERK is phosphorylated, both antibodies can bind the same protein, bringing the donor and acceptor beads into close proximity, producing a signal that can be measured at 580 nm. MEK phosphorylation is detected using a similar approach, only with antibodies directed against total MEK1/2 and MEK1/2 that is phosphorylated at Ser217 and Ser221.
as §1

BRAF V600E = target: T1, BRAF V600E (Homo sapiens, UniProt P15056, V600E); experiment: BRAF V600E biochemical kinase activity assay (AlphaScreen, biotin-MEK1 substrate); settings: BRAF V600E biochemical inhibitory activity
T1 construct: purchased Upstate Biotechnology
Method: Compounds to be tested are diluted in dimethyl sulfoxide to a concentration of 0.1 mM. These are serially diluted 15 μL into 30 μL of dimethyl sulfoxide seven times in 96 well plates for a total of 8 dilution points, and for each dilution point 1 μL is added to a well of an assay plate. […] The reaction is started with addition of 10 μL of 200 μM ATP (i.e. final 100 μM ATP). After incubation of the kinase reaction for 45 minutes at room temperature, 5 μL/well of Stop Solution is added (25 mM Hepes pH 7.5, 100 mM EDTA, 0.01% BSA with donor beads (Streptavidin coated beads, Perkin Elmer), acceptor beads (Protein A coated, Perkin Elmer), and anti-phosphor MEK1/2 antibody (CellSignal), each at final concentration 10 μg/mL). The plates are incubated for 3 hours at room temperature and read on Envision reader (Perkin Elmer). Phosphorylation of Mek1 results in binding of the anti-phosphor-MEK1/2antibody and association of the donor and acceptor beads such that signal correlates with kinase activity. The signal versus compound concentration is used to determine the IC50.
The in vitro RAF kinase activities were determined by measuring phosphorylation of a biotinylated substrate peptide as described previously (Tsai, J. et al. Proc Natl Acad Sci USA 105, 3041-3046 (2008)). Compounds of formula (I), e.g., compound A, was also tested against a panel of 287 kinases at concentrations of 1 μM in duplicate. Kinases inhibited by over 50% were followed up by IC50 determination. The 287 kinases represent all major branches of the kinome phylogenetic tree. The inhibition screen of 287 kinases was carried out under contract as complementary panels at Invitrogen (Life Technologies, Wis., USA) SelectScreen™ profiling service, DiscoverX (CA, USA) KINOMEScan™ service, and Reaction Biology Corporation (PA, USA) Kinase HotSpot℠ service.

[2] = test system: IPC-298 (NRAS Q61L) cell line; experiment: IPC-298 P-ERK cell activation assay (AlphaScreen); assay type: cell-based, human; settings: Homo sapiens; P-ERK cell activation, IPC-298; numeric bounds; read-out: Cell activity (EC50 μM) IPC-298_P-ERK
Method: as §2, §1

T1 sequence (P15056 whole entry V600E): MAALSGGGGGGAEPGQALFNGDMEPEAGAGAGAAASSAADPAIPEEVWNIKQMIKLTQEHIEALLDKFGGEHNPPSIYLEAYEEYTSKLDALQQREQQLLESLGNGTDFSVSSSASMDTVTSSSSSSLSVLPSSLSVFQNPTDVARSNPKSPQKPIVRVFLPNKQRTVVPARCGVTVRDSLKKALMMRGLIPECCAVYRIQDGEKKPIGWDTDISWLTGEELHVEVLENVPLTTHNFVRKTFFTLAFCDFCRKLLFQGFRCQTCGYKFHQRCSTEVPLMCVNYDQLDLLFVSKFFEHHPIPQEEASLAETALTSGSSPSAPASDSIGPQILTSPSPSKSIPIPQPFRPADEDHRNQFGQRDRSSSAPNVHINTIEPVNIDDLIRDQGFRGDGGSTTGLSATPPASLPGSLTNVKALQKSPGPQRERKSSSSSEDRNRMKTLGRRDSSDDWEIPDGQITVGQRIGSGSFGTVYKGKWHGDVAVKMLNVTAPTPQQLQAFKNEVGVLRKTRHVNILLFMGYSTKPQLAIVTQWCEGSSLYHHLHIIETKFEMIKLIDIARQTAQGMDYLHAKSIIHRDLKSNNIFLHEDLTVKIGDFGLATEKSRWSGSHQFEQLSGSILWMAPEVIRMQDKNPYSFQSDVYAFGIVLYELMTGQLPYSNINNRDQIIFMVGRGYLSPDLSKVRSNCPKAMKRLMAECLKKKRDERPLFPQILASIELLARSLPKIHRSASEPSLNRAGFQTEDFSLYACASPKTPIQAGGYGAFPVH

COc1ccnc2[nH]cc(C(=O)c3c(F)ccc(NS(=O)(=O)C(C)C)c3F)c12 [Compound P-2001, N-[2,4-difluoro-3-(4-methoxy-1H-pyrrolo[2,3-b]pyridine-3-carbonyl)phenyl]propane-2-sulfonamide]
IC50 [1]: > 10 µM | EC50 (B9 (HRAS Q61L) cell line): > 10 µM | IC50 (BRAF V600E): 0.0001 to 1 µM | EC50 [2]: > 10 µM

COc1ccnc2[nH]cc(C(=O)c3c(F)ccc(NS(=O)(=O)N(C)C)c3F)c12 [Compound P-2002, 3-[3-(dimethylsulfamoylamino)-2,6-difluoro-benzoyl]-4-methoxy-1H-pyrrolo[2,3-b]pyridine]
IC50 [1]: 0.0001 to 1 µM | EC50 (B9 (HRAS Q61L) cell line): > 10 µM | IC50 (BRAF V600E): 0.0001 to 1 µM | EC50 [2]: > 10 µM

COc1ccnc2[nH]cc(C(=O)c3c(F)ccc(NS(=O)(=O)N4CCCC4)c3F)c12 [Compound P-2003, N-[2,4-difluoro-3-(4-methoxy-1H-pyrrolo[2,3-b]pyridine-3-carbonyl)phenyl]pyrrolidine-1-sulfonamide]
IC50 [1]: 0.0001 to 1 µM | EC50 (B9 (HRAS Q61L) cell line): > 10 µM | IC50 (BRAF V600E): 0.0001 to 1 µM | EC50 [2]: > 10 µM

CCN(CC)S(=O)(=O)Nc1ccc(F)c(C(=O)c2c[nH]c3nccc(OC)c23)c1F [Compound P-2004, 3-[3-(diethylsulfamoylamino)-2,6-difluoro-benzoyl]-4-methoxy-1H-pyrrolo[2,3-b]pyridine]
IC50 [1]: > 10 µM | EC50 (B9 (HRAS Q61L) cell line): > 10 µM | IC50 (BRAF V600E): 1 to 10 µM | EC50 [2]: > 10 µM

COc1ccnc2[nH]cc(C(=O)c3c(F)ccc(NS(=O)(=O)C4CCCCC4)c3F)c12 [Compound P-2005, N-[2,4-difluoro-3-(4-methoxy-1H-pyrrolo[2,3-b]pyridine-3-carbonyl)phenyl]cyclohexanesulfonamide]
IC50 [1]: 1 to 10 µM | EC50 (B9 (HRAS Q61L) cell line): > 10 µM | IC50 (BRAF V600E): 0.0001 to 1 µM | EC50 [2]: > 10 µM

CCC(C)S(=O)(=O)Nc1ccc(F)c(C(=O)c2c[nH]c3nccc(OC)c23)c1F (stereo not drawn) [Compound P-2006, N-[2,4-difluoro-3-(4-methoxy-1H-pyrrolo[2,3-b]pyridine-3-carbonyl)phenyl]butane-2-sulfonamide]
IC50 [1]: 0.0001 to 1 µM | EC50 (B9 (HRAS Q61L) cell line): > 10 µM | IC50 (BRAF V600E): 0.0001 to 1 µM | EC50 [2]: > 10 µM

CN(C)S(=O)(=O)Nc1ccc(F)c(C(=O)c2c[nH]c3nccc(Cl)c23)c1F [Compound P-2007, 4-chloro-3-[3-(dimethylsulfamoylamino)-2,6-difluoro-benzoyl]-1H-pyrrolo[2,3-b]pyridine]
IC50 [1]: 0.0001 to 1 µM | EC50 (B9 (HRAS Q61L) cell line): > 10 µM | IC50 (BRAF V600E): 0.0001 to 1 µM | EC50 [2]: > 10 µM

O=C(c1c(F)ccc(NS(=O)(=O)C2CCC2)c1F)c1c[nH]c2nccc(Cl)c12 [Compound P-2008, N-[3-(4-chloro-1H-pyrrolo[2,3-b]pyridine-3-carbonyl)-2,4-difluoro-phenyl]cyclobutanesulfonamide]
IC50 [1]: 0.0001 to 1 µM | EC50 (B9 (HRAS Q61L) cell line): > 10 µM | IC50 (BRAF V600E): 0.0001 to 1 µM | EC50 [2]: > 10 µM

CCCC(C)S(=O)(=O)Nc1ccc(F)c(C(=O)c2c[nH]c3nccc(OC)c23)c1F (stereo not drawn) [Compound P-2009, N-[2,4-difluoro-3-(4-methoxy-1H-pyrrolo[2,3-b]pyridine-3-carbonyl)phenyl]pentane-2-sulfonamide]
IC50 [1]: 1 to 10 µM | EC50 (B9 (HRAS Q61L) cell line): > 10 µM | IC50 (BRAF V600E): 0.0001 to 1 µM | EC50 [2]: > 10 µM

COc1ccnc2[nH]cc(C(=O)c3c(F)ccc(NS(=O)(=O)C4CCC4)c3F)c12 [Compound P-2010, N-[2,4-difluoro-3-(4-methoxy-1H-pyrrolo[2,3-b]pyridine-3-carbonyl)phenyl]cyclobutanesulfonamide]
IC50 [1]: 1 to 10 µM | EC50 (B9 (HRAS Q61L) cell line): > 10 µM | IC50 (BRAF V600E): 0.0001 to 1 µM | EC50 [2]: > 10 µM

CCN(CC)S(=O)(=O)Nc1ccc(F)c(C(=O)c2c[nH]c3nccc(Cl)c23)c1F [Compound P-2011, 4-chloro-3-[3-(diethylsulfamoylamino)-2,6-difluoro-benzoyl]-1H-pyrrolo[2,3-b]pyridine]
IC50 [1]: 1 to 10 µM | EC50 (B9 (HRAS Q61L) cell line): > 10 µM | IC50 (BRAF V600E): 0.0001 to 1 µM | EC50 [2]: > 10 µM

CCN(CC)S(=O)(=O)Nc1ccc(F)c(C(=O)c2c[nH]c3nccc(C#N)c23)c1F [P-2012, 4-cyano-3-[3-(diethylsulfamoylamino)-2,6-difluoro-benzoyl]-1H-pyrrolo[2,3-b]pyridine]
IC50 [1]: 1 to 10 µM | EC50 (B9 (HRAS Q61L) cell line): > 10 µM | IC50 (BRAF V600E): 0.0001 to 1 µM | EC50 [2]: > 10 µM

O=C(c1c(F)ccc(NS(=O)(=O)C2CCCCC2)c1F)c1c[nH]c2nccc(Cl)c12 [P-2014, N-[3-(4-chloro-1H-pyrrolo[2,3-b]pyridine-3-carbonyl)-2,4-difluoro-phenyl]cyclohexanesulfonamide]
IC50 [1]: 0.0001 to 1 µM | EC50 (B9 (HRAS Q61L) cell line): > 10 µM | IC50 (BRAF V600E): 0.0001 to 1 µM | EC50 [2]: > 10 µM

O=C(c1c(F)ccc(NS(=O)(=O)C2CCCC2)c1F)c1c[nH]c2nccc(Cl)c12 [P-2015, N-[3-(4-chloro-1H-pyrrolo[2,3-b]pyridine-3-carbonyl)-2,4-difluoro-phenyl]cyclopentanesulfonamide]
IC50 [1]: > 10 µM | EC50 (B9 (HRAS Q61L) cell line): > 10 µM | IC50 (BRAF V600E): 0.0001 to 1 µM | EC50 [2]: > 10 µM

CCC(C)S(=O)(=O)Nc1ccc(F)c(C(=O)c2c[nH]c3nccc(Cl)c23)c1F (stereo not drawn) [P-2016, N-[3-(4-chloro-1H-pyrrolo[2,3-b]pyridine-3-carbonyl)-2,4-difluoro-phenyl]butane-2-sulfonamide]
IC50 [1]: 0.0001 to 1 µM | EC50 (B9 (HRAS Q61L) cell line): > 10 µM | IC50 (BRAF V600E): 0.0001 to 1 µM | EC50 [2]: > 10 µM

CC(C)S(=O)(=O)Nc1ccc(F)c(C(=O)c2c[nH]c3nccc(C#N)c23)c1F [P-2017, N-[3-(4-cyano-1H-pyrrolo[2,3-b]pyridine-3-carbonyl)-2,4-difluoro-phenyl]propane-2-sulfonamide]
IC50 [1]: 0.0001 to 1 µM | EC50 (B9 (HRAS Q61L) cell line): > 10 µM | IC50 (BRAF V600E): 0.0001 to 1 µM | EC50 [2]: > 10 µM

N#Cc1ccnc2[nH]cc(C(=O)c3c(F)ccc(NS(=O)(=O)C4CCCCC4)c3F)c12 [P-2018, N-[3-(4-cyano-1H-pyrrolo[2,3-b]pyridine-3-carbonyl)-2,4-difluoro-phenyl]cyclohexanesulfonamide]
IC50 [1]: > 10 µM | EC50 (B9 (HRAS Q61L) cell line): > 10 µM | IC50 (BRAF V600E): 0.0001 to 1 µM | EC50 [2]: > 10 µM

N#Cc1ccnc2[nH]cc(C(=O)c3c(F)ccc(NS(=O)(=O)N4CCCC4)c3F)c12 [P-2019, N-[3-(4-cyano-1H-pyrrolo[2,3-b]pyridine-3-carbonyl)-2,4-difluoro-phenyl]pyrrolidine-1-sulfonamide]
IC50 [1]: 0.0001 to 1 µM | EC50 (B9 (HRAS Q61L) cell line): > 10 µM | IC50 (BRAF V600E): 0.0001 to 1 µM | EC50 [2]: > 10 µM

Cc1cc(NS(=O)(=O)N2CCCC2)c(F)c(C(=O)c2c[nH]c3ncc(-c4cnc(C5CC5)nc4)cc23)c1 [P-2183, N-[3-[5-(2-cyclopropylpyrimidin-5-yl)-1H-pyrrolo[2,3-b]pyridine-3-carbonyl]-2-fluoro-5-methyl-phenyl]pyrrolidine-1-sulfonamide]
EC50 (B9 (HRAS Q61L) cell line): > 10 µM | IC50 (BRAF V600E): 0.0001 to 1 µM | EC50 [2]: > 10 µM
